The source made the active and inactive calls. No stated cut-off is given here; in the data, actives have a measured IC50 and inactives only a lower limit.

In the assay the target is Envelope glycoprotein gp160 (Human immunodeficiency virus 1, UniProt Q6QLK5). Nature of the assay: inhibitors of HIV fusion peptide binding, primary screen, biochemical, uHTS, fluorescence dequenching (AID 1986).
Chain of Envelope glycoprotein gp160 (Q6QLK5 whole entry, the tested form may be a part): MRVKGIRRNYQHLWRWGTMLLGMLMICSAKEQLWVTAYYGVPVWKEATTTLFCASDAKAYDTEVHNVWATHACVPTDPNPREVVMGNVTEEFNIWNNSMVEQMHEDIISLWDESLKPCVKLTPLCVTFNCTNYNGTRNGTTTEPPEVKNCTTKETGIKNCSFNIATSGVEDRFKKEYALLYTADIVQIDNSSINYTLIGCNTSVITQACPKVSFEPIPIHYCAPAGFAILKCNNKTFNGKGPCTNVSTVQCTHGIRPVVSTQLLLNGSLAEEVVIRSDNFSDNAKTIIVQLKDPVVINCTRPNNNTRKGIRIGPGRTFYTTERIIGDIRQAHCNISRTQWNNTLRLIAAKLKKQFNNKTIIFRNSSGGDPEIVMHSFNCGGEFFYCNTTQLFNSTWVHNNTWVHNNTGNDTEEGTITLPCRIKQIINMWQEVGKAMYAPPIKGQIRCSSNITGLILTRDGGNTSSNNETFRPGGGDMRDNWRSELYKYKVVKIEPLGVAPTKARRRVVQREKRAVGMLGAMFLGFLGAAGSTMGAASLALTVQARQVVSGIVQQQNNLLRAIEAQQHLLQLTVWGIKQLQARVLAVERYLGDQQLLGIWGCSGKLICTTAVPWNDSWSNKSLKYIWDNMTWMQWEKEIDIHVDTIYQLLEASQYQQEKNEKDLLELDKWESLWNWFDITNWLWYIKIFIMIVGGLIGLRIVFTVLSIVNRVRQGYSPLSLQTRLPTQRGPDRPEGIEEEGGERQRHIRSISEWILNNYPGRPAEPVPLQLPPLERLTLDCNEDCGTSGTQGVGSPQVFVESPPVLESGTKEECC
As a reminder, the IC50 is the concentration at which inhibition is half-maximal. In the case of `O=C(O)c1cccc(-n2cccc2/C=C2/NC(=O)N(c3ccc(Cl)cc3)C2=O)c1`, the IC50 was 16.9 µM (active).
In the case of `COc1cc(/C=C2\C(=N)N3N=C(S(C)(=O)=O)SC3=NC2=O)cc(OC)c1OCCOc1cccc(C)c1`, the IC50 is 13.8 µM (active).
Regarding `N#Cc1c(O)nc(SCC(=O)Nc2ccc(OC(F)(F)Cl)cc2)nc1-c1ccccc1`, the IC50 was 15.6 µM (active).

Values taken from ChEMBL document CHEMBL1201862, “PubChem BioAssay data set” (2004).
